Earlier results on four compounds are cited in patent US20120021048A1, “Combination Dosage Compositions Comprising a Cholesterol-Lowering Agent, a Renin-Angiotensin System Inhibitor, an Antioxidant Agent and an Antiplatelet Agent for Treatment and Prevention of Cardiovascular Disease” (Nucitec S.A. de C.V., priority 2010, published 2012).

Structures are written as SMILES. Like-named read-outs stand apart in the source and are kept apart here.

The conditions of data set [1]: expected value, single agent at polypill dose, cited from earlier work.
The conditions of data set [2]: expected value; doses of polypill (atorvastatin 20 mg, lycopene 30 mg); cited from earlier work.
The subject of another data set is macrophages. The conditions noted are these: lycopene added to macrophages in cell culture; cited from earlier work.
For data set [3] the following is noted: in vivo pure lycopene supplementation; cited from earlier work.

`CC(=O)Oc1ccccc1C(=O)O` [Acetylsalicylic Acid]: the “% reduction in risk of Ischaemic heart disease” value (from here on “% reduction in risk”) in data set [1] was 32%; in data set [1] (listed as acetylsalicylic acid), “about 32%”.

Take `CC(C)c1c(C(=O)Nc2ccccc2)c(-c2ccccc2)c(-c2ccc(F)cc2)n1CC[C@@H](O)C[C@@H](O)CC(=O)O` [Atorvastatin]: the “% reduction in risk” value is given as 61% in data set [1] and “about 61%” in data set [1] (listed as atorvastatin). Further, the “Reduction in concentration (LDL-cholesterol)” value in data set [2] is 70 mg/dL.

Turning to `CC(C)=CCC/C(C)=C/C=C/C(C)=C/C=C/C(C)=C/C=C/C=C(C)/C=C/C=C(C)/C=C/C=C(\C)CCC=C(C)C` [Lycopene], the “suppression of cellular cholesterol synthesis” value in the data set with macrophages is “approximately 40%”. In addition, in data set [1], the “% reduction in risk” value is on record as roughly 20%. In addition, the “Reduction in concentration (LDL-cholesterol)” value in data set [2] was 14 to 20 mg/dL. The “reduction of plasma LDL cholesterol concentration” value in data set [3] is recorded as 14%.

`CCOC(=O)[C@H](CCc1ccccc1)N[C@@H](C)C(=O)N1[C@H](C(=O)O)C[C@@H]2CCC[C@@H]21` [Ramipril]: in data set [1], the “% reduction in risk” value is listed as roughly 25%.
